Test results reported in the supplement of paper PMC11451515.

Tests used:
Conditions in all cases: 48 h
[1] = test system: NOMO1; test: AUC of viability dose-response curve (% viability x log10 dose units); higher = less sensitive
How it was run: (§1)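 Leukemia cells adapted to each medium were seeded at 500 or 1000 cells/well in 1536-well plates and dosed with library compounds in DMSO at 11 threefold doses from 47 μM to 0.79 nM for 48 h at 37°C. CellTiter-Glo One luminescence was normalised per plate to DMSO and cell-free wells, then fitted with a four-parameter log-logistic model over log10 doses. Area under the curve was taken from this fit by the trapezoidal rule, with curves above full viability scaled and curves failing quality control removed.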

[2] = test system: P12-Ichikawa; test: as above
How it was run: as §1

[3] = test system: SEM cells; test: as above
How it was run: as §1

[4] = test system: NOMO1; test: cell viability relative to DMSO control; higher = less cytotoxic
How it was run: (§2)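 Viability values are per-plate percentages of DMSO wells, with background from cell-free wells. Library compounds in DMSO were pin-dosed, in an 11-point threefold series from 47 μM to 0.79 nM, onto NOMO1 or SEM (500 cells/well) or P12-Ichikawa (1000 cells/well) leukemia cells in 1536-well plates (5 μl). Those cells had been adapted for at least four passages in each medium, and CellTiter-Glo One luminescence was read after 48 h at 37°C.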

[5] = test system: P12-Ichikawa; test: as above
How it was run: as §2

[6] = test system: SEM cells; test: as above
How it was run: as §2

COc1cc(-c2nn(C3CCC(N4CCN(C(C)=O)CC4)CC3)c3ncnc(N)c23)ccc1NC(=O)c1cc2ccccc2n1C (stereo not given)
AUC of viability dose-response curve
Conditions	[1]	[2]	[3]
HPLM + 10% dialyzed FBS	443	449	472
RPMI 5 mM glucose + 10% FBS	450	465	468
RPMI 5 mM glucose + 10% dialyzed FBS	460	460	468

cell viability [%]
Conditions	[4]	[5]	[6]
HPLM + 10% dialyzed FBS, 0.000781 µM	–	117	121
HPLM + 10% dialyzed FBS, 0.00234 µM	–	114	117
HPLM + 10% dialyzed FBS, 0.00702 µM	–	114	123
HPLM + 10% dialyzed FBS, 0.0211 µM	–	128	113
HPLM + 10% dialyzed FBS, 0.0632 µM	–	115	123
HPLM + 10% dialyzed FBS, 0.19 µM	–	116	126
HPLM + 10% dialyzed FBS, 0.569 µM	–	107	123
HPLM + 10% dialyzed FBS, 1.71 µM	–	111	142
HPLM + 10% dialyzed FBS, 5.12 µM	–	103	121
HPLM + 10% dialyzed FBS, 15.4 µM	–	102	121
HPLM + 10% dialyzed FBS, 46.1 µM	–	83.9	101
RPMI 5 mM glucose + 10% FBS, 0.000781 µM	104	110	125
RPMI 5 mM glucose + 10% FBS, 0.00234 µM	117	114	117
RPMI 5 mM glucose + 10% FBS, 0.00702 µM	101	118	115
RPMI 5 mM glucose + 10% FBS, 0.0211 µM	109	115	109
RPMI 5 mM glucose + 10% FBS, 0.0632 µM	107	113	131
RPMI 5 mM glucose + 10% FBS, 0.19 µM	111	117	140
RPMI 5 mM glucose + 10% FBS, 0.569 µM	106	109	132
RPMI 5 mM glucose + 10% FBS, 1.71 µM	113	102	135
RPMI 5 mM glucose + 10% FBS, 5.12 µM	112	113	129
RPMI 5 mM glucose + 10% FBS, 15.4 µM	89.2	115	122
RPMI 5 mM glucose + 10% FBS, 46.1 µM	26.8	100	85.5
RPMI 5 mM glucose + 10% dialyzed FBS, 0.000781 µM	106	109	104
RPMI 5 mM glucose + 10% dialyzed FBS, 0.00234 µM	110	110	124
RPMI 5 mM glucose + 10% dialyzed FBS, 0.00702 µM	120	119	121
RPMI 5 mM glucose + 10% dialyzed FBS, 0.0211 µM	119	117	128
RPMI 5 mM glucose + 10% dialyzed FBS, 0.0632 µM	129	114	124
RPMI 5 mM glucose + 10% dialyzed FBS, 0.19 µM	115	106	111
RPMI 5 mM glucose + 10% dialyzed FBS, 0.569 µM	113	110	117
RPMI 5 mM glucose + 10% dialyzed FBS, 1.71 µM	112	109	130
RPMI 5 mM glucose + 10% dialyzed FBS, 5.12 µM	106	110	120
RPMI 5 mM glucose + 10% dialyzed FBS, 15.4 µM	109	103	113
RPMI 5 mM glucose + 10% dialyzed FBS, 46.1 µM	31.3	97.7	90

O=C(NNC(=O)c1ccc(CN[S+](=O)([O-])c2ccc(F)c(Cl)c2)cc1)c1ccccc1
AUC of viability dose-response curve
Conditions	[1]	[2]	[3]
HPLM + 10% dialyzed FBS	468	460	463
RPMI 5 mM glucose + 10% FBS	437	466	449
RPMI 5 mM glucose + 10% dialyzed FBS	438	470	423

cell viability [%]
Conditions	[4]	[5]	[6]
HPLM + 10% dialyzed FBS, 0.000781 µM	105	97.4	84.6
HPLM + 10% dialyzed FBS, 0.00234 µM	105	106	97.1
HPLM + 10% dialyzed FBS, 0.00702 µM	116	104	98.2
HPLM + 10% dialyzed FBS, 0.0211 µM	121	99	89.9
HPLM + 10% dialyzed FBS, 0.0632 µM	112	109	107
HPLM + 10% dialyzed FBS, 0.19 µM	103	107	109
HPLM + 10% dialyzed FBS, 0.569 µM	104	107	109
HPLM + 10% dialyzed FBS, 1.71 µM	117	109	102
HPLM + 10% dialyzed FBS, 5.12 µM	113	113	112
HPLM + 10% dialyzed FBS, 15.4 µM	82.7	105	106
HPLM + 10% dialyzed FBS, 46.1 µM	110	113	87
RPMI 5 mM glucose + 10% FBS, 0.000781 µM	84.1	99.8	92.9
RPMI 5 mM glucose + 10% FBS, 0.00234 µM	85.2	101	85.2
RPMI 5 mM glucose + 10% FBS, 0.00702 µM	85.2	98.7	92.5
RPMI 5 mM glucose + 10% FBS, 0.0211 µM	89.3	96.5	75
RPMI 5 mM glucose + 10% FBS, 0.0632 µM	92.9	112	91.5
RPMI 5 mM glucose + 10% FBS, 0.19 µM	99.5	100	98.3
RPMI 5 mM glucose + 10% FBS, 0.569 µM	93.3	106	102
RPMI 5 mM glucose + 10% FBS, 1.71 µM	91.3	98.6	105
RPMI 5 mM glucose + 10% FBS, 5.12 µM	96.7	91.6	88.2
RPMI 5 mM glucose + 10% FBS, 15.4 µM	94.5	114	104
RPMI 5 mM glucose + 10% FBS, 46.1 µM	92.6	105	106
RPMI 5 mM glucose + 10% dialyzed FBS, 0.000781 µM	92.1	87	79.6
RPMI 5 mM glucose + 10% dialyzed FBS, 0.00234 µM	98.5	98.3	76.6
RPMI 5 mM glucose + 10% dialyzed FBS, 0.00702 µM	107	98.3	89.6
RPMI 5 mM glucose + 10% dialyzed FBS, 0.0211 µM	94.2	102	97.4
RPMI 5 mM glucose + 10% dialyzed FBS, 0.0632 µM	111	103	96
RPMI 5 mM glucose + 10% dialyzed FBS, 0.19 µM	105	98.1	91.1
RPMI 5 mM glucose + 10% dialyzed FBS, 0.569 µM	103	102	93.1
RPMI 5 mM glucose + 10% dialyzed FBS, 1.71 µM	102	103	96.9
RPMI 5 mM glucose + 10% dialyzed FBS, 5.12 µM	115	103	87
RPMI 5 mM glucose + 10% dialyzed FBS, 15.4 µM	112	107	103
RPMI 5 mM glucose + 10% dialyzed FBS, 46.1 µM	115	101	64.5
